Laboratory results reported in PubChem BioAssay AID2060508 (Molecular Pharmacology Branch, DTP, NCI, 2025).

These compounds were tested on 454973-116-R2-J3-PDC spheroids, viability, % test/control (assay: Anticancer human tumor 454973-116-R2-J3-PDC patient-derived pancreatic carcinoma cell line growth inhibition [GQUAD]). Conditions: second compound 0.0316 µM; first compound 3.16 µM; active compounds read low; spheroids with HUVEC and MSC.
Method in brief: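 Tumor cells were grown as complex spheroids with HUVEC endothelial cells and mesenchymal stem cells as stroma. G-quadruplex stabilizers were combined with targeted agents over half-log dilutions from near the clinical Cmax, or from 10 microM.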
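Note: spheroids exposed to compounds for seven days; 100% = DMSO vehicle control viability.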

| SMILES | viability, T/C [%] |
| --- | --- |
| CC1COCCN1c1cc(C2(S(C)(=N)=O)CC2)nc(-c2ccnc3[nH]ccc23)n1 (configuration not stated) + CN(C)c1ccc(Nc2c3ccc(NC(=O)CCN4CCCC4)cc3nc3cc(NC(=O)CCN4CCCC4)ccc23)cc1 | 64.1 |
| COc1ccc([C@@H](O)c2cc(-c3ncnc4cc(N5CCOCC5)ccc34)c(F)cc2Cl)nn1 + CN(C)c1ccc(Nc2c3ccc(NC(=O)CCN4CCCC4)cc3nc3cc(NC(=O)CCN4CCCC4)ccc23)cc1 | 69.1 |

Same assay, conditions: second compound 0.0316 µM; first compound 10 µM; active compounds read low; spheroids with HUVEC and MSC

| SMILES | viability, T/C [%] |
| --- | --- |
| CC1COCCN1c1cc(-c2ccnn2C)c2ccnc(-c3ccn[nH]3)c2n1 (configuration not stated) + CN(C)c1ccc(Nc2c3ccc(NC(=O)CCN4CCCC4)cc3nc3cc(NC(=O)CCN4CCCC4)ccc23)cc1 | 29.4 |
| CC1COCCN1c1cc(C2(S(C)(=N)=O)CC2)nc(-c2ccnc3[nH]ccc23)n1 (configuration not stated) + CN(C)c1ccc(Nc2c3ccc(NC(=O)CCN4CCCC4)cc3nc3cc(NC(=O)CCN4CCCC4)ccc23)cc1 | 33.5 |
| COc1ccc([C@@H](O)c2cc(-c3ncnc4cc(N5CCOCC5)ccc34)c(F)cc2Cl)nn1 + CN(C)c1ccc(Nc2c3ccc(NC(=O)CCN4CCCC4)cc3nc3cc(NC(=O)CCN4CCCC4)ccc23)cc1 | 55.7 |

Same assay, conditions: second compound 0.1 µM; first compound 0.0316 µM; active compounds read low; spheroids with HUVEC and MSC

| SMILES | viability, T/C [%] |
| --- | --- |
| CC1COCCN1c1cc(-c2ccnn2C)c2ccnc(-c3ccn[nH]3)c2n1 (configuration not stated) + CN(C)c1ccc(Nc2c3ccc(NC(=O)CCN4CCCC4)cc3nc3cc(NC(=O)CCN4CCCC4)ccc23)cc1 | 102 |
| CC1COCCN1c1cc(C2(S(C)(=N)=O)CC2)nc(-c2ccnc3[nH]ccc23)n1 (configuration not stated) + CN(C)c1ccc(Nc2c3ccc(NC(=O)CCN4CCCC4)cc3nc3cc(NC(=O)CCN4CCCC4)ccc23)cc1 | 109 |
| COc1ccc([C@@H](O)c2cc(-c3ncnc4cc(N5CCOCC5)ccc34)c(F)cc2Cl)nn1 + CN(C)c1ccc(Nc2c3ccc(NC(=O)CCN4CCCC4)cc3nc3cc(NC(=O)CCN4CCCC4)ccc23)cc1 | 112 |

Same assay, conditions: second compound 0.1 µM; first compound 0.1 µM; active compounds read low; spheroids with HUVEC and MSC

| SMILES | viability, T/C [%] |
| --- | --- |
| CC1COCCN1c1cc(-c2ccnn2C)c2ccnc(-c3ccn[nH]3)c2n1 (configuration not stated) + CN(C)c1ccc(Nc2c3ccc(NC(=O)CCN4CCCC4)cc3nc3cc(NC(=O)CCN4CCCC4)ccc23)cc1 | 72 |
| CC1COCCN1c1cc(C2(S(C)(=N)=O)CC2)nc(-c2ccnc3[nH]ccc23)n1 (configuration not stated) + CN(C)c1ccc(Nc2c3ccc(NC(=O)CCN4CCCC4)cc3nc3cc(NC(=O)CCN4CCCC4)ccc23)cc1 | 99.4 |
| COc1ccc([C@@H](O)c2cc(-c3ncnc4cc(N5CCOCC5)ccc34)c(F)cc2Cl)nn1 + CN(C)c1ccc(Nc2c3ccc(NC(=O)CCN4CCCC4)cc3nc3cc(NC(=O)CCN4CCCC4)ccc23)cc1 | 98.5 |

Same assay, conditions: second compound 0.1 µM; first compound 0.316 µM; active compounds read low; spheroids with HUVEC and MSC

| SMILES | viability, T/C [%] |
| --- | --- |
| CC1COCCN1c1cc(-c2ccnn2C)c2ccnc(-c3ccn[nH]3)c2n1 (configuration not stated) + CN(C)c1ccc(Nc2c3ccc(NC(=O)CCN4CCCC4)cc3nc3cc(NC(=O)CCN4CCCC4)ccc23)cc1 | 32.9 |
| CC1COCCN1c1cc(C2(S(C)(=N)=O)CC2)nc(-c2ccnc3[nH]ccc23)n1 (configuration not stated) + CN(C)c1ccc(Nc2c3ccc(NC(=O)CCN4CCCC4)cc3nc3cc(NC(=O)CCN4CCCC4)ccc23)cc1 | 115 |
| COc1ccc([C@@H](O)c2cc(-c3ncnc4cc(N5CCOCC5)ccc34)c(F)cc2Cl)nn1 + CN(C)c1ccc(Nc2c3ccc(NC(=O)CCN4CCCC4)cc3nc3cc(NC(=O)CCN4CCCC4)ccc23)cc1 | 101 |

Same assay, conditions: second compound 0.1 µM; first compound 1 µM; active compounds read low; spheroids with HUVEC and MSC

| SMILES | viability, T/C [%] |
| --- | --- |
| CC1COCCN1c1cc(-c2ccnn2C)c2ccnc(-c3ccn[nH]3)c2n1 (configuration not stated) + CN(C)c1ccc(Nc2c3ccc(NC(=O)CCN4CCCC4)cc3nc3cc(NC(=O)CCN4CCCC4)ccc23)cc1 | 22.9 |
| CC1COCCN1c1cc(C2(S(C)(=N)=O)CC2)nc(-c2ccnc3[nH]ccc23)n1 (configuration not stated) + CN(C)c1ccc(Nc2c3ccc(NC(=O)CCN4CCCC4)cc3nc3cc(NC(=O)CCN4CCCC4)ccc23)cc1 | 108 |
| COc1ccc([C@@H](O)c2cc(-c3ncnc4cc(N5CCOCC5)ccc34)c(F)cc2Cl)nn1 + CN(C)c1ccc(Nc2c3ccc(NC(=O)CCN4CCCC4)cc3nc3cc(NC(=O)CCN4CCCC4)ccc23)cc1 | 82.9 |

Same assay, conditions: second compound 0.1 µM; first compound 3.16 µM; active compounds read low; spheroids with HUVEC and MSC

| SMILES | viability, T/C [%] |
| --- | --- |
| CC1COCCN1c1cc(-c2ccnn2C)c2ccnc(-c3ccn[nH]3)c2n1 (configuration not stated) + CN(C)c1ccc(Nc2c3ccc(NC(=O)CCN4CCCC4)cc3nc3cc(NC(=O)CCN4CCCC4)ccc23)cc1 | 23.1 |
| CC1COCCN1c1cc(C2(S(C)(=N)=O)CC2)nc(-c2ccnc3[nH]ccc23)n1 (configuration not stated) + CN(C)c1ccc(Nc2c3ccc(NC(=O)CCN4CCCC4)cc3nc3cc(NC(=O)CCN4CCCC4)ccc23)cc1 | 62.9 |
| COc1ccc([C@@H](O)c2cc(-c3ncnc4cc(N5CCOCC5)ccc34)c(F)cc2Cl)nn1 + CN(C)c1ccc(Nc2c3ccc(NC(=O)CCN4CCCC4)cc3nc3cc(NC(=O)CCN4CCCC4)ccc23)cc1 | 65.5 |

Same assay, conditions: second compound 0.1 µM; first compound 10 µM; active compounds read low; spheroids with HUVEC and MSC

| SMILES | viability, T/C [%] |
| --- | --- |
| CC1COCCN1c1cc(-c2ccnn2C)c2ccnc(-c3ccn[nH]3)c2n1 (configuration not stated) + CN(C)c1ccc(Nc2c3ccc(NC(=O)CCN4CCCC4)cc3nc3cc(NC(=O)CCN4CCCC4)ccc23)cc1 | 26.1 |
| CC1COCCN1c1cc(C2(S(C)(=N)=O)CC2)nc(-c2ccnc3[nH]ccc23)n1 (configuration not stated) + CN(C)c1ccc(Nc2c3ccc(NC(=O)CCN4CCCC4)cc3nc3cc(NC(=O)CCN4CCCC4)ccc23)cc1 | 34.5 |
| COc1ccc([C@@H](O)c2cc(-c3ncnc4cc(N5CCOCC5)ccc34)c(F)cc2Cl)nn1 + CN(C)c1ccc(Nc2c3ccc(NC(=O)CCN4CCCC4)cc3nc3cc(NC(=O)CCN4CCCC4)ccc23)cc1 | 51.5 |

Same assay, conditions: second compound 0.316 µM; first compound 0.0316 µM; active compounds read low; spheroids with HUVEC and MSC

| SMILES | viability, T/C [%] |
| --- | --- |
| CC1COCCN1c1cc(-c2ccnn2C)c2ccnc(-c3ccn[nH]3)c2n1 (configuration not stated) + CN(C)c1ccc(Nc2c3ccc(NC(=O)CCN4CCCC4)cc3nc3cc(NC(=O)CCN4CCCC4)ccc23)cc1 | 94.3 |
| CC1COCCN1c1cc(C2(S(C)(=N)=O)CC2)nc(-c2ccnc3[nH]ccc23)n1 (configuration not stated) + CN(C)c1ccc(Nc2c3ccc(NC(=O)CCN4CCCC4)cc3nc3cc(NC(=O)CCN4CCCC4)ccc23)cc1 | 104 |
| COc1ccc([C@@H](O)c2cc(-c3ncnc4cc(N5CCOCC5)ccc34)c(F)cc2Cl)nn1 + CN(C)c1ccc(Nc2c3ccc(NC(=O)CCN4CCCC4)cc3nc3cc(NC(=O)CCN4CCCC4)ccc23)cc1 | 93.3 |

Same assay, conditions: second compound 0.316 µM; first compound 0.1 µM; active compounds read low; spheroids with HUVEC and MSC

| SMILES | viability, T/C [%] |
| --- | --- |
| CC1COCCN1c1cc(-c2ccnn2C)c2ccnc(-c3ccn[nH]3)c2n1 (configuration not stated) + CN(C)c1ccc(Nc2c3ccc(NC(=O)CCN4CCCC4)cc3nc3cc(NC(=O)CCN4CCCC4)ccc23)cc1 | 74.1 |
| CC1COCCN1c1cc(C2(S(C)(=N)=O)CC2)nc(-c2ccnc3[nH]ccc23)n1 (configuration not stated) + CN(C)c1ccc(Nc2c3ccc(NC(=O)CCN4CCCC4)cc3nc3cc(NC(=O)CCN4CCCC4)ccc23)cc1 | 103 |
| COc1ccc([C@@H](O)c2cc(-c3ncnc4cc(N5CCOCC5)ccc34)c(F)cc2Cl)nn1 + CN(C)c1ccc(Nc2c3ccc(NC(=O)CCN4CCCC4)cc3nc3cc(NC(=O)CCN4CCCC4)ccc23)cc1 | 91.5 |

Same assay, conditions: second compound 0.316 µM; first compound 0.316 µM; active compounds read low; spheroids with HUVEC and MSC

| SMILES | viability, T/C [%] |
| --- | --- |
| CC1COCCN1c1cc(-c2ccnn2C)c2ccnc(-c3ccn[nH]3)c2n1 (configuration not stated) + CN(C)c1ccc(Nc2c3ccc(NC(=O)CCN4CCCC4)cc3nc3cc(NC(=O)CCN4CCCC4)ccc23)cc1 | 31 |
| CC1COCCN1c1cc(C2(S(C)(=N)=O)CC2)nc(-c2ccnc3[nH]ccc23)n1 (configuration not stated) + CN(C)c1ccc(Nc2c3ccc(NC(=O)CCN4CCCC4)cc3nc3cc(NC(=O)CCN4CCCC4)ccc23)cc1 | 99.8 |
| COc1ccc([C@@H](O)c2cc(-c3ncnc4cc(N5CCOCC5)ccc34)c(F)cc2Cl)nn1 + CN(C)c1ccc(Nc2c3ccc(NC(=O)CCN4CCCC4)cc3nc3cc(NC(=O)CCN4CCCC4)ccc23)cc1 | 89.1 |
